Assay results as given in patent publication US20230119539A1, “TRACELESS LINKERS AND PROTEIN-CONJUGATES THEREOF” (Regeneron Pharmaceuticals, Inc., priority 2019, published 2023).

Experiments:
[1] = pH stability of quenched linker-payloads in buffers (LCMS); type: physicochemical
Experimental: To a solution of compound (payloads or quenched-linker-payloads) in DMSO (0.2-1.0 mg/mL) was added corresponding PBS buffer (V(buffer)/V(DMSO)=5) to give test samples (pH 3, 4, 5, 6, 7.4, and 8.5, or other special pH). The test samples were incubated at RT for at least 3 days and monitored by LCMS (i.e., at 1 hr, 2 hr, 4 hr, 8 hr, and 1 day, 2 day, 3 day, 4 day, 5 day, 6 day, 7 day, 8 day, 9 day, and 21 day time points). Initial concentrations of the samples were 0.2 mg/mL (DMSO/buffer, v/v=1/5). […] The payloads and quenched linker-payloads were mostly stable at pH >5.0, 6.0, 7.4 and 8.5 after 3 days. In more acidic conditions, such as pH 1.0, the payloads or linker-payloads were easily cleaved to release D*-OH.

[2] = Metabolic stability with human liver microsomes; type: in vitro ADME; settings: for Area ratio of III formed from PIII-1 / Percent Remaining (%): Mean
Experimental: The metabolic stability of payload PIII-1 incubated with human liver microsomes was evaluated and the results were shown in the Table 7e below.

[3] = buffer, 1 day, 0.2 mg/mL, pH 7.4
[4] = buffer, 2 day, 0.2 mg/mL, pH 7.4
[5] = buffer, 7 day, 0.2 mg/mL, pH 7.4

SMILES: CCCC1OC2CC3C4CCC5=CC(=O)C=CC5(C)C4C(O)CC3(C)C2(C(=O)COCN2CCCC(NC(=O)OCc3ccc(NC(=O)C(CCCNC(N)=O)NC(=O)C(NC(=O)CCOCCOCCOCCOCCNC(=O)CCC(=O)N4Cc5ccccc5-c5c(nnn5CCOCCOCCOCCOCCC(=O)NCCS(=O)(=O)O)-c5ccccc54)C(C)C)cc3)C2=O)O1 (mixture of isomers) [Q1L1-PII-12]
- LP: percentage of linker-payloads remaining ([1]; pH 4.0, day 1): 100%
- P: percentage of budesonide released from the linker-payloads ([1]; pH 4.0, day 1): 0%
- LP: percentage of linker-payloads remaining ([1]; pH 4.0, day 2): 100%
- P: percentage of budesonide released from the linker-payloads ([1]; pH 4.0, day 2): 0%
- LP: percentage of linker-payloads remaining ([1]; pH 4.0, day 7): 100%
- P: percentage of budesonide released from the linker-payloads ([1]; pH 4.0, day 7): 0%
- LP: percentage of linker-payloads remaining ([1]; pH 5.0, day 1): 100%
- P: percentage of budesonide released from the linker-payloads ([1]; pH 5.0, day 1): 0%
- LP: percentage of linker-payloads remaining ([1]; pH 5.0, day 2): 100%
- P: percentage of budesonide released from the linker-payloads ([1]; pH 5.0, day 2): 0%
- LP: percentage of linker-payloads remaining ([1]; pH 5.0, day 7): 100%
- P: percentage of budesonide released from the linker-payloads ([1]; pH 5.0, day 7): 0%
- LP: percentage of linker-payloads remaining ([1]; pH 7.4, day 1): 100%
- P: percentage of budesonide released from the linker-payloads ([1]; pH 7.4, day 1): 0%
- LP: percentage of linker-payloads remaining ([1]; pH 7.4, day 2): 100%
- P: percentage of budesonide released from the linker-payloads ([1]; pH 7.4, day 2): 0%
- LP: percentage of linker-payloads remaining ([1]; pH 7.4, day 7): 100%
- P: percentage of budesonide released from the linker-payloads ([1]; pH 7.4, day 7): 0%

SMILES: CCCC1OC2CC3C4CCC5=CC(=O)C=CC5(C)C4C(O)CC3(C)C2(C(=O)COC2CCN2C(=O)CNC(=O)CCOCCOCCOCCOCCNC(=O)CCC(=O)N2Cc3ccccc3-c3c(nnn3CCOCCOCCOCCOCCC(=O)NCCS(=O)(=O)O)-c3ccccc32)O1 (mixture of isomers) [Q1L6-PII-13]
- LP: percentage of linker-payloads remaining ([1]; pH 4.0, day 1): 100%
- P: percentage of budesonide released from the linker-payloads ([1]; pH 4.0, day 1): 0%
- LP: percentage of linker-payloads remaining ([1]; pH 4.0, day 2): 100%
- P: percentage of budesonide released from the linker-payloads ([1]; pH 4.0, day 2): 0%
- LP: percentage of linker-payloads remaining ([1]; pH 4.0, day 7): 100%
- P: percentage of budesonide released from the linker-payloads ([1]; pH 4.0, day 7): 0%
- LP: percentage of linker-payloads remaining ([1]; pH 5.0, day 1): 100%
- P: percentage of budesonide released from the linker-payloads ([1]; pH 5.0, day 1): 0%
- LP: percentage of linker-payloads remaining ([1]; pH 5.0, day 2): 100%
- P: percentage of budesonide released from the linker-payloads ([1]; pH 5.0, day 2): 0%
- LP: percentage of linker-payloads remaining ([1]; pH 5.0, day 7): 100%
- P: percentage of budesonide released from the linker-payloads ([1]; pH 5.0, day 7): 0%
- LP: percentage of linker-payloads remaining ([1]; pH 6.0, day 1): 100%
- P: percentage of budesonide released from the linker-payloads ([1]; pH 6.0, day 1): 0%
- LP: percentage of linker-payloads remaining ([1]; pH 6.0, day 2): 100%
- P: percentage of budesonide released from the linker-payloads ([1]; pH 6.0, day 2): 0%
- LP: percentage of linker-payloads remaining ([1]; pH 6.0, day 7): 100%
- P: percentage of budesonide released from the linker-payloads ([1]; pH 6.0, day 7): 0%
- LP: percentage of linker-payloads remaining ([1]; pH 7.4, day 1): 100%
- P: percentage of budesonide released from the linker-payloads ([1]; pH 7.4, day 1): 0%
- LP: percentage of linker-payloads remaining ([1]; pH 7.4, day 2): 100%
- P: percentage of budesonide released from the linker-payloads ([1]; pH 7.4, day 2): 0%
- LP: percentage of linker-payloads remaining ([1]; pH 7.4, day 7): 100%
- P: percentage of budesonide released from the linker-payloads ([1]; pH 7.4, day 7): 0%

SMILES: CCCC1O[C@@H]2C[C@H]3[C@@H]4C[C@H](F)C5=CC(=O)C=C[C@]5(C)[C@@]4(F)[C@@H](O)C[C@]3(C)[C@]2(C(=O)CO)O1 (stereo partly drawn) [III from P11I-1]
- Area ratio of III formed from PIII-1 ([2]; 0 min): BQL
- Area ratio of III formed from PIII-1 ([2]; 5 min): 0.001
- Area ratio of III formed from PIII-1 ([2]; 15 min): 0.002
- Area ratio of III formed from PIII-1 ([2]; 30 min): 0.001
- Area ratio of III formed from PIII-1 ([2]; 45 min): 0.001

SMILES: CCCC1O[C@@H]2C[C@H]3[C@@H]4CCC5=CC(=O)C=C[C@]5(C)[C@H]4[C@@H](O)C[C@]3(C)[C@]2(C(=O)COCNC(=O)CNC(=O)OCc2ccc(O[C@@H]3O[C@H](CO)[C@@H](O)[C@H](O)[C@H]3O)c(C(=O)NCCNC(=O)COC3C#CCCCCC3)c2)O1 (stereo partly drawn) [L18-PII-1, COT-EDA-(GLC)PAB-G-NHCH2-Bud]
- LP: percentage of linker-payloads remaining ([1]; buffer, 1 day, 0.2 mg/mL, pH 4): 100%
- LP: percentage of linker-payloads remaining ([1]; buffer, 1 day, 0.2 mg/mL, pH 5): 100%
- LP: percentage of linker-payloads remaining ([1]; buffer, 1 day, 0.2 mg/mL, pH 6): 100%
- LP: percentage of linker-payloads remaining [1, 3]: 100%
- LP: percentage of linker-payloads remaining ([1]; buffer, 2 day, 0.2 mg/mL, pH 4): 100%
- LP: percentage of linker-payloads remaining ([1]; buffer, 2 day, 0.2 mg/mL, pH 5): 100%
- LP: percentage of linker-payloads remaining ([1]; buffer, 2 day, 0.2 mg/mL, pH 6): 100%
- LP: percentage of linker-payloads remaining [1, 4]: 100%
- LP: percentage of linker-payloads remaining ([1]; buffer, 7 day, 0.2 mg/mL, pH 4): 100%
- LP: percentage of linker-payloads remaining ([1]; buffer, 7 day, 0.2 mg/mL, pH 5): 100%
- LP: percentage of linker-payloads remaining ([1]; buffer, 7 day, 0.2 mg/mL, pH 6): 100%
- LP: percentage of linker-payloads remaining [1, 5]: 100%
- P: percentage of budesonide released from the linker-payloads ([1]; pH 4.0, day 1): 0%
- P: percentage of budesonide released from the linker-payloads ([1]; pH 4.0, day 2): 0%
- P: percentage of budesonide released from the linker-payloads ([1]; pH 4.0, day 7): 0%
- P: percentage of budesonide released from the linker-payloads ([1]; pH 5.0, day 1): 0%
- P: percentage of budesonide released from the linker-payloads ([1]; pH 5.0, day 2): 0%
- P: percentage of budesonide released from the linker-payloads ([1]; pH 5.0, day 7): 0%
- P: percentage of budesonide released from the linker-payloads ([1]; pH 6.0, day 1): 0%
- P: percentage of budesonide released from the linker-payloads ([1]; pH 6.0, day 2): 0%
- P: percentage of budesonide released from the linker-payloads ([1]; pH 6.0, day 7): 0%
- P: percentage of budesonide released from the linker-payloads ([1]; pH 7.4, day 1): 0%
- P: percentage of budesonide released from the linker-payloads ([1]; pH 7.4, day 2): 0%
- P: percentage of budesonide released from the linker-payloads ([1]; pH 7.4, day 7): 0%

SMILES: CCCC1O[C@@H]2C[C@H]3[C@@H]4CCC5=CC(=O)C=C[C@]5(C)[C@H]4[C@@H](O)C[C@]3(C)[C@]2(C(=O)COC2CCCN2C(=O)CNC(=O)CCOCCOCCOCCOCCNC(=O)CCC(=O)N2Cc3ccccc3-c3c(nnn3CCOCCOCCOCCOCCC(=O)NCCS(=O)(=O)O)-c3ccccc32)O1 (stereo partly drawn) [Q1L6-PII-9]
- LP: percentage of linker-payloads remaining ([1]; buffer, 1 day, 0.2 mg/mL, pH 4): 30%
- LP: percentage of linker-payloads remaining ([1]; buffer, 1 day, 0.2 mg/mL, pH 6): 100%
- LP: percentage of linker-payloads remaining [1, 3]: 100%
- LP: percentage of linker-payloads remaining ([1]; buffer, 2 day, 0.2 mg/mL, pH 4): 10%
- LP: percentage of linker-payloads remaining ([1]; buffer, 2 day, 0.2 mg/mL, pH 6): 100%
- LP: percentage of linker-payloads remaining [1, 4]: 100%
- LP: percentage of linker-payloads remaining ([1]; buffer, 7 day, 0.2 mg/mL, pH 4): 0%
- LP: percentage of linker-payloads remaining ([1]; buffer, 7 day, 0.2 mg/mL, pH 6): 92%
- LP: percentage of linker-payloads remaining [1, 5]: 100%
- P: percentage of budesonide released from the linker-payloads ([1]; pH 4.0, day 1): 69%
- P: percentage of budesonide released from the linker-payloads ([1]; pH 4.0, day 2): 89%
- P: percentage of budesonide released from the linker-payloads ([1]; pH 4.0, day 7): 99%
- P: percentage of budesonide released from the linker-payloads ([1]; pH 5.0, day 1): 5%
- P: percentage of budesonide released from the linker-payloads ([1]; pH 5.0, day 2): 10%
- P: percentage of budesonide released from the linker-payloads ([1]; pH 5.0, day 7): 28%
- P: percentage of budesonide released from the linker-payloads ([1]; pH 6.0, day 1): 0%
- P: percentage of budesonide released from the linker-payloads ([1]; pH 6.0, day 2): 0%
- P: percentage of budesonide released from the linker-payloads ([1]; pH 6.0, day 7): 8%
- P: percentage of budesonide released from the linker-payloads ([1]; pH 7.4, day 1): 0%
- P: percentage of budesonide released from the linker-payloads ([1]; pH 7.4, day 2): 0%
- P: percentage of budesonide released from the linker-payloads ([1]; pH 7.4, day 7): 0%

SMILES: O=C(c1ccc(F)cc1)C1CCN(CCn2c(=O)[nH]c3ccccc3c2=O)CC1 [ketanserin]
- Percent Remaining (%) ([2]; 0 min): 100.00%
- Percent Remaining (%) ([2]; 5 min): 81.45%
- Percent Remaining (%) ([2]; 15 min): 67.51%
- Percent Remaining (%) ([2]; 30 min): 41.90%
- Percent Remaining (%) ([2]; 45 min): 36.47%
- CLint scaled ([2]; human): 55.2 mL/min/kg
- half-life ([2]; human): 31.5 min
